Read-outs that look alike come from different tables or passages of the source.
Legend:
in vivo = assay: in vivo; parameters: species or system Swiss Mouse; settings: male, Swiss, mouse, in vivo, 10 mg/kg
Procedure: Water and food were available ad libitum throughout the study. Mouse were handled in accordance with the institutional and national guidelines for the care and use of laboratory animals. […] Drugs were administered by oral gavage using feeding needle. […] Plasma samples were stored at -80° C. until bioanalysis. […] Plasma samples bioanalysis and data analysis The plasma samples (20 μl) were thawed at 0° C. […] Standard samples were prepared by spiking the blank plasma into concentrations 10-5 000 ng/ml and otherwise treated as the samples. […] Mass spectrometric detection involved electrospray ionization in the negative mode followed by multiple reaction monitoring of the drugs and internal standard transitions. Actual drug concentrations were deduced from interpolation of the standard curve. The pharmacokinetic parameters were calculated using XLfit (IDBS) and Excel (Microsoft) software, using standard non-compartmental methods. The intraduodenal bioavailability was calculated by dividing the AUC obtained from the intraduodenal administration by the AUC obtained from the intravenous administration.

[1] = tested on: Klebsiella pneumoniae (KPN) isolates; assay: MIC of compounds alone and combined with antibacterials, broth microdilution (CLSI); assay type: cell-based
How it was run: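 Inoculum 5·10^5 CFU/mL (final), log phase, ca-MHB; 16-20 h, 35° C, ambient air. MIC = lowest conc. with no visible growth; ATB MIC read at each compound level.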

With C=CC1=C(C(=O)O)N2C(=O)[C@@H](NC(=O)/C(=N\OCC(=O)O)c3csc(N)n3)[C@H]2SC1 [FIX, Cefixime] the AUC(0-inf) (in vivo; iv) was 37200 ng·h/mL, the bioavailability (in vivo; po) was 45% and the “MIC ATB in combination” value [1] was over 128 µg/mL. The “MIC ATB in combination” value ([1]; KPN 6299, AF1 @ 4 μg/mL) was “<=0.25 μg/mL”, the “MIC ATB in combination” value ([1]; KPN 6299, AF1 @ 8 μg/mL) was “<=0.25 μg/mL” and the “MIC ATB in combination” value ([1]; KPN 110376, AF1 @ 4 μg/mL) was 0.125 µg/mL. The “MIC ATB in combination” value ([1]; KPN 110376, AF1 @ 8 μg/mL) was 0.125 µg/mL, the “MIC ATB in combination” value ([1]; KPN 131119, AF1 @ 4 μg/mL) was “<=0.25 μg/mL” and the “MIC ATB in combination” value ([1]; KPN 131119, AF1 @ 8 μg/mL) was “<=0.25 μg/mL”. The “MIC ATB in combination” value ([1]; KPN 140513, AF1 @ 4 μg/mL) was 4 µg/mL, the “MIC ATB in combination” value ([1]; KPN 140513, AF1 @ 8 μg/mL) was 0.5 µg/mL and the “MIC ATB in combination” value ([1]; KPN 160143, AF1 @ 4 μg/mL) was “<=0.25 μg/mL”. The “MIC ATB in combination” value ([1]; KPN 160143, AF1 @ 8 μg/mL) was “<=0.25 μg/mL”, the “MIC ATB in combination” value ([1]; KPN 190128, AF1 @ 4 μg/mL) was 0.5 µg/mL and the “MIC ATB in combination” value ([1]; KPN 190128, AF1 @ 8 μg/mL) was “<=0.25 μg/mL”. For the same molecule, the “MIC ATB in combination” value ([1]; KPN 190270, AF1 @ 4 μg/mL) was 0.5 µg/mL, the “MIC ATB in combination” value ([1]; KPN 190270, AF1 @ 8 μg/mL) was “<=0.25 μg/mL” and the “MIC ATB in combination” value ([1]; KPN 190425, AF1 @ 4 μg/mL) was “<=0.25 μg/mL”. The “MIC ATB in combination” value ([1]; KPN 190425, AF1 @ 8 μg/mL) was “<=0.25 μg/mL”, the “MIC ATB in combination” value ([1]; KPN 190551, AF1 @ 4 μg/mL) was “<=0.25 μg/mL” and the “MIC ATB in combination” value ([1]; KPN 190551, AF1 @ 8 μg/mL) was “<=0.25 μg/mL”. For the same molecule, the “MIC ATB in combination” value ([1]; KPN 200047, AF1 @ 4 μg/mL) was “<=0.25 μg/mL”, the “MIC ATB in combination” value ([1]; KPN 200047, AF1 @ 8 μg/mL) was “<=0.25 μg/mL” and the “MIC ATB in combination” value ([1]; KPN 200327, AF1 @ 4 μg/mL) was “<=0.25 μg/mL”. For the same molecule, the “MIC ATB in combination” value ([1]; KPN 200327, AF1 @ 8 μg/mL) was “<=0.25 μg/mL”, the “MIC ATB in combination” value ([1]; KPN 260251, AF1 @ 4 μg/mL) was “<=0.25 μg/mL” and the “MIC ATB in combination” value ([1]; KPN 260251, AF1 @ 8 μg/mL) was 0.5 µg/mL. The “MIC ATB in combination” value ([1]; KPN 260252, AF1 @ 4 μg/mL) was 8 µg/mL, the “MIC ATB in combination” value ([1]; KPN 260252, AF1 @ 8 μg/mL) was 4 µg/mL and the “MIC ATB in combination” value ([1]; KPN 260376, AF1 @ 4 μg/mL) was “<=0.25 μg/mL”. For the same molecule, the “MIC ATB in combination” value ([1]; KPN 260376, AF1 @ 8 μg/mL) was “<=0.25 μg/mL”, the “MIC ATB in combination” value ([1]; KPN 270077, AF1 @ 4 μg/mL) was 0.5 µg/mL and the “MIC ATB in combination” value ([1]; KPN 270077, AF1 @ 8 μg/mL) was “<=0.25 μg/mL”. The “MIC ATB in combination” value ([1]; KPN 700603, AF1 @ 4 μg/mL) was “<=0.25 μg/mL”, the “MIC ATB in combination” value ([1]; KPN 700603, AF1 @ 8 μg/mL) was “<=0.25 μg/mL” and the “MIC ATB in combination” value ([1]; KPN ARA, AF1 @ 4 μg/mL) was “<=0.25 μg/mL”. The “MIC ATB in combination” value ([1]; KPN ARA, AF1 @ 8 μg/mL) was “<=0.25 μg/mL”, the “MIC ATB in combination” value ([1]; KPN BAA-1898, AF1 @ 4 μg/mL) was “<=0.25 μg/mL” and the “MIC ATB in combination” value ([1]; KPN BAA-1898, AF1 @ 8 μg/mL) was “<=0.25 μg/mL”. The “MIC ATB in combination” value ([1]; KPN LIB, AF1 @ 4 μg/mL) was “<=0.25 μg/mL”, the “MIC ATB in combination” value ([1]; KPN LIB, AF1 @ 8 μg/mL) was “<=0.25 μg/mL” and the “MIC ATB in combination” value ([1]; KPN UFR22_O, AF1 @ 4 μg/mL) was “<=0.25 μg/mL”. For the same molecule, the “MIC ATB in combination” value ([1]; KPN UFR22_O, AF1 @ 8 μg/mL) was “<=0.25 μg/mL”, the “MIC ATB in combination” value ([1]; KPN UFR23, AF1 @ 4 μg/mL) was “<=0.25 μg/mL” and the “MIC ATB in combination” value ([1]; KPN UFR23, AF1 @ 8 μg/mL) was “<=0.25 μg/mL”. For the same molecule, the “MIC ATB in combination” value ([1]; KPN UFR24, AF1 @ 4 μg/mL) was 0.5 µg/mL, the “MIC ATB in combination” value ([1]; KPN UFR24, AF1 @ 8 μg/mL) was 0.5 µg/mL and the “MIC ATB in combination” value ([1]; KPN UFR25, AF1 @ 4 μg/mL) was “<=0.25 μg/mL”. The “MIC ATB in combination” value ([1]; KPN UFR25, AF1 @ 8 μg/mL) was “<=0.25 μg/mL”, the “MIC ATB in combination” value ([1]; KPN UFR27, AF1 @ 4 μg/mL) was 16 µg/mL and the “MIC ATB in combination” value ([1]; KPN UFR27, AF1 @ 8 μg/mL) was 2 µg/mL. For the same molecule, the “MIC ATB in combination” value ([1]; KPN UFR28, AF1 @ 4 μg/mL) was “<=0.25 μg/mL”, the “MIC ATB in combination” value ([1]; KPN UFR28, AF1 @ 8 μg/mL) was “<=0.25 μg/mL” and the “MIC ATB in combination” value ([1]; KPN UFR65, AF1 @ 4 μg/mL) was “<=0.25 μg/mL”.
